Test results reported in article PMC11489133, “Obicetrapib exhibits favorable physiochemical and pharmacokinetic properties compared to previous cholesteryl ester transfer protein inhibitors: An integrated summary of results from non‐human primate studies and clinical trials” (Pharmacology Research & Perspectives, 2024).
Read-outs that look alike come from different tables or passages of the source.

Columns and labels:
[1] = disposition of 14C-obicetrapib after a single oral dose of 20 mg/kg in the cynomolgus monkey; format: in vivo; conditions: urine and feces samples
Description: Figure 1 illustrates the metabolism of obicetrapib (TA‐8995) in the cynomolgus monkey. A study was conducted to examine the disposition of ^14C‐obicetrapib following oral administration in the cynomolgus monkey (n = 3 males) at a dose level of 20 mg/kg. […] The monkeys each received a single oral dose of ^14C‐obicetrapib by gavage at a target dose level of 20 mg/kg and a nominal dose volume of 5 mL/kg. […] After the final blood collection, radioactivity was measured in the blood and plasma by liquid scintillation counting. The profile of M1 in selected samples of plasma was determined by high‐performance liquid chromatography (HPLC) (following extraction of the matrix, where relevant) and selected M1 were identified by liquid chromatography mass spectrometry. In plasma, unchanged obicetrapib and a M1 were the principal radioactive components and represented at least 66% of the chromatographic radioactivity in any single profile.

[2] = TULIP Phase II trial, plasma concentrations of obicetrapib; format: in vivo, humans; conditions: for % Change in Plasma Level: Week 20 vs EOT, mean (SD); for concentration at 12 weeks / concentration at 20 weeks: both sexes, human, plasma, oral, read-out: Mean (SD) Plasma Level; for concentration at 12 weeks: Week 12 (EOT)
Description: (§1) The PK parameters and the effect of food on the bioavailability of obicetrapib in humans have been examined in both Phase I[9] (TA‐8995‐09 CSR, NewAmsterdam Pharma) and Phase II trials.[10], [11], [12], [13] The trials were performed in accordance with the Declaration of Helsinki, Good Clinical Practice Guidelines, and applicable regulatory requirements. Approval was obtained from the relevant ethical review boards for each site. All volunteers provided written informed consent prior to participation. PK parameters were determined using WinNonlin software, version 4.1 or higher (Pharsight/Certara Corporation, USA). Concentrations of obicetrapib were summarized for each treatment group using descriptive statistics.
TULIP (NCT01970215) was a placebo‐controlled, double‐blind, randomized parallel‐group trial conducted to evaluate the effects of varying doses of obicetrapib as monotherapy and in combination with moderate‐intensity statin therapy on LDL‐C and HDL‐C levels.[10]
Additionally, the plasma concentrations of obicetrapib were evaluated during and after the treatment period. Eligible participants had mild dyslipidemia defined as LDL‐C levels between 96–174 mg/dL, HDL‐C levels between 31 and 70 mg/dL, and triglyceride levels <400 mg/dL after a washout for those on lipid‐modifying therapies. Three hundred and sixty‐four participants (mean age: 64.7 years; 81.6% male; 98.1% White; mean body mass index [BMI]: 26.0 kg/m^2) were enrolled at 17 clinical research sites in the Netherlands and Denmark and randomized in a […] ratio to one of nine treatment groups: (1) placebo; (2) 1 mg obicetrapib; (3) 2.5 mg obicetrapib; (4) 5 mg obicetrapib; (5) 10 mg obicetrapib; (6) 10 mg atorvastatin; (7) 10 mg obicetrapib plus 20 mg atorvastatin; (8) 10 mg rosuvastatin; or (9) 10 mg obicetrapib plus 10 mg rosuvastatin. The participants were instructed to take their assigned treatment orally with food once daily for the 12‐week treatment period. After randomization, participants returned to the clinical research site for PK assessments at Weeks 8 and 12 (end of treatment). Participants also completed follow‐up visits two and eight weeks after the end of treatment (Weeks 14 and 20) for final safety and PK assessments. Of the 364 participants randomized, 337 (92.6%) completed the trial and were included in the primary analysis. The PK population (n = 242) included all randomized participants who received at least one dose of obicetrapib and had at least one valid plasma drug concentration data assessment; 227 (93.8%) of the participants in the PK population were included in the 8‐week post‐end of treatment PK analysis (TA‐8995‐03 CSR, NewAmsterdam Pharma).

[3] = ROSE2 Phase II trial, plasma concentrations of obicetrapib; format: in vivo, humans; conditions: for % Change in Plasma Level: Week 12 to Week 16, mean (SD); for concentration at 12 weeks / concentration at 16 weeks: both sexes, human, plasma, oral, read-out: Mean (SD) Plasma Level; for concentration at 12 weeks: Week 12 (EOT), on‐treatment PK population; for concentration at 16 weeks: Week 16, four weeks after the end of treatment
Description: as §1
ROSE2 (NCT05266586) was a placebo‐controlled, double‐blind, randomized trial conducted to evaluate the efficacy, safety, and tolerability of obicetrapib or obicetrapib plus ezetimibe as an adjunct to high‐intensity statin therapy.[12] An exploratory endpoint of the trial included assessing the plasma concentrations of obicetrapib during treatment and 4 weeks after the end of treatment. […] One hundred nineteen participants (mean age: 62.6 years; 63.9% male; 84.5% White; mean BMI: 30.9 kg/m^2) were enrolled at 18 clinical research sites in the United States and randomized in a 1:1:1 ratio to one of three treatment groups: (1) placebo; (2) obicetrapib monotherapy (one 10 mg obicetrapib tablet plus one placebo capsule for ezetimibe); or (3) combination therapy (one 10 mg obicetrapib tablet plus one 10 mg ezetimibe capsule). The participants were instructed to take their assigned treatment orally with water once daily at approximately the same time each morning for the 12‐week treatment period. After randomization, participants returned to the clinical research site during Weeks 4 and 12 (end of treatment) for safety and PK assessments. Participants also completed a follow‐up visit 4 weeks after the end of treatment (Week 16) for final safety and PK assessments. Of the 119 participants randomized, 97 (81.5%) were included in an on‐treatment analysis, which excluded participants with plasma concentrations of obicetrapib <100 ng/mL at either or both Week 4 and Week 12.[12] The on‐treatment PK population (n = 57) included all randomized participants in the mITT population assigned to the two obicetrapib dose groups who had sufficient blood samples collected for valid estimation of PK parameters and excluded participants with plasma concentrations of obicetrapib <100 ng/mL at either or both Week 4 and Week 12. Fifty‐six (98.2%) participants in the on‐treatment PK population were included in the 4‐week post‐end of treatment PK analysis (TA‐8995‐202 CSR, NewAmsterdam Pharma).

[4] = Phase II trials of obicetrapib, integrated summary of post-treatment elimination; format: in vivo, humans
Description: The Phase II trials of obicetrapib described herein include the TA‐8995: Its Use in Patients with Mild Dyslipidaemia (TULIP)[10] study, the Randomized Study of Obicetrapib as an Adjunct to Statin Therapy (ROSE),[11] the Study to Evaluate the Effect of Obicetrapib in Combination with Ezetimibe as an Adjunct to High‐Intensity Statin Therapy (ROSE2),[12] and A Dose‐Finding Study in Japanese Patients to Evaluate the Effect of Obicetrapib as an Adjunct to Stable Statin Therapy (TA‐8995‐203).[13]

[5] = TULIP Phase II trial, plasma concentrations of obicetrapib; format: in vivo, humans; conditions: any of the participants
[6] = Obicetrapib 10 mg + atorvastatin 20 mg
[7] = Obicetrapib 10 mg + rosuvastatin 10 mg
[8] = Obicetrapib 10 mg + ezetimibe 10 mg + high‐intensity statin
[9] = Obicetrapib 10 mg + high‐intensity statin

CCOC(=O)N1c2ccc(C(F)(F)F)cc2C(N(Cc2cc(C(F)(F)F)cc(C(F)(F)F)c2)c2ncc(OCCCC(=O)O)cn2)CC1CC (stereo not drawn) [Obicetrapib]
metabolism of obicetrapib [1]: extensive | % Change in Plasma Level ([2]; Obicetrapib 5 mg): −97.8 (0.8) % | Mean (SD) Plasma Level ([2]; Obicetrapib 10 mg + atorvastatin 20 mg, Week 20, eight weeks after the end of treatment): 10.8 (5.9) ng/mL | % Change in Plasma Level [2, 6]: −97.4 (1.0) % | % Change in Plasma Level [2, 7]: −97.3 (1.3) % | % Change in Plasma Level ([2]; Obicetrapib 10 mg): −97.7 (0.7) % | concentration at 12 weeks ([2]; 5 mg, Obicetrapib 5 mg once daily): 258 ng/mL | concentration at 20 weeks ([2]; 5 mg, Obicetrapib 5 mg, Week 20, eight weeks after the end of treatment): 5.9 ng/mL | concentration at 12 weeks ([2]; 10 mg, Obicetrapib 10 mg once daily): 408 ng/mL | concentration at 20 weeks ([2]; 10 mg, Obicetrapib 10 mg, Week 20, eight weeks after the end of treatment): 9.8 ng/mL | concentration at 12 weeks [2, 6]: 404 ng/mL | concentration at 12 weeks [2, 7]: 402 ng/mL | concentration at 20 weeks ([2]; Obicetrapib 10 mg + rosuvastatin 10 mg, Week 20, eight weeks after the end of treatment): 11.3 ng/mL | decrease of plasma levels ([2]; eight weeks after the last dose (Week 20), all treatment groups): approximately 97% | % Change in Plasma Level [3, 8]: −92.2 (3.7) % | % Change in Plasma Level [3, 9]: −93.7 (3.3) % | % Change in Plasma Level ([3]; Obicetrapib 10 mg + high‐intensity statin, listed as obicetrapib): −93.7% | concentration at 12 weeks [3, 8]: 360 ng/mL | concentration at 16 weeks [3, 8]: 28.7 ng/mL | concentration at 12 weeks [3, 9]: 387 ng/mL | concentration at 16 weeks [3, 9]: 24.5 ng/mL | decrease of plasma levels of obicetrapib ([4]; 15 weeks post‐treatment): 98.5% | decrease of plasma levels of obicetrapib ([4]; four weeks post‐treatment): 92.2% | obicetrapib in urine [5]: not detected
